In the assay the target is Adenosine receptor A2a (Rattus norvegicus, UniProt P30543).
Sequence of Adenosine receptor A2a (P30543 whole entry): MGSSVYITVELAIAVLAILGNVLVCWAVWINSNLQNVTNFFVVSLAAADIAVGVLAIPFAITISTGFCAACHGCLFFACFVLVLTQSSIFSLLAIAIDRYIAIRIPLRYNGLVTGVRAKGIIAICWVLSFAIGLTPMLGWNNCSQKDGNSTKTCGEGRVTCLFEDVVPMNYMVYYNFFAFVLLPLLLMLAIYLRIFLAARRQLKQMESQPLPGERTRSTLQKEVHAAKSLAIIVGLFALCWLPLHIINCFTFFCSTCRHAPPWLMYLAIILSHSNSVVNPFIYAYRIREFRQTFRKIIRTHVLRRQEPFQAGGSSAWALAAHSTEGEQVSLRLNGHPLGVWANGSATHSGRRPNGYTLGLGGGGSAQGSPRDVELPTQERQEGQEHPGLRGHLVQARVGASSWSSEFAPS

For the compound `OC[C@H]1O[C@@H](n2cnc3c(NC4CCCC4)ncnc32)[C@H](O)[C@@H]1O`, the affinity, expressed as Ki, was 2 µM.

The values above are taken from BindingDB's records for doi:10.1007/bf00175797 (Pharmakologisches Institut, Heidelberg, 1988).
